Experimental data taken from patent US11635379B2, “Portable wide field fluorimeter systems” (priority 2017, dated 2023).

Assays:
S. Aureus = biological target: T1, S. Aureus (Staphylococcus aureus, UniProt P00807); experiment: Antibiotic susceptibility testing by β-LEAF fluorescence in microfluidic device with portable fluorimeter; assay type: cell-based
T1 construct: endogenous in cells
Experimental: In another experiment, fluorometric assay techniques were examined using a microfluidic device (e.g., the microfluidic device 102) and fluorescence images were collected using a portable wide field fluorimeter similar to the system 700 depicted in FIGS. 7A-D. In this experiment, the detection reagent was a 20 μM β-LEAF Bodipy-FL probe solution (2×stock) that was prepared in 40% DMSO in PBS, and an antibiotic solution was a […] penicillin G solution (4×stock) that was prepared by dissolving the antibiotic powder in PBS. Two different types of liquid samples were prepared. A first liquid sample (which included the antibiotic solution) was prepared by combining the 25 μl bacterial suspension, 50 μl of probe 2×stock solution, and 25 μl antibiotic 4×stock solution. […]
Data acquisition involved collecting a fluorescent reading by the camera every 3 seconds. […] Fluorescence was measured in a machine specific standard unit. […]
To analyze image data, a region of interest was selected over an area of bacteria capture corresponding to a chamber of the microfluidic device was the liquid samples were collected. Fluorescence data was extracted in a green channel. […]
The experiment was performed using two liquid samples that were introduced into a microfluidic device and monitored for fluorescence over a 10-minute time period. […]

[1] = biological target: T2, β-lactamase producing strain (B-lac(+)) (Staphylococcus aureus, UniProt P00807); assay type: cell-based; conditions: B-lac(+) S. aureus, β-LEAF with vs without cefazolin, 60-minute time course, 37° C.
T2 construct: a known β-lactamase producing strain (B-lac(+)); host or cells: S. aureus ATCC control strain, β-lactamase producing (B-lac(+))
T2 sequence (P00807 25-281): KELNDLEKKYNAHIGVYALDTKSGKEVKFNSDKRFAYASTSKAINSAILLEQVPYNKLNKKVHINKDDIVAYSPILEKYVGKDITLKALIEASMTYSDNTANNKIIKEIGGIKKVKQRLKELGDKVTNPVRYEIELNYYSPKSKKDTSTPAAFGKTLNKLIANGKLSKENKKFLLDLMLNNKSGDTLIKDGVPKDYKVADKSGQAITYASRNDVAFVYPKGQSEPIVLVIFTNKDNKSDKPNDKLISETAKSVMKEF
From the text: Consequently, the fluorophores are unable to emit fluorescence due to ground state interactions between each other. However, after probe cleavage by β-lactamase, the fluorophores diffuse away from each other, are no longer quenched, and thus regain their fluorescent properties. […] If the assay is repeated in the presence of a cleavable antibiotic that competes with the β-LEAF for β-lactamase cleavage, the rate of β-LEAF cleavage will decrease, resulting in no fluorescence increase.
To encapsulate the data, the suppression of fluorescence change (ΔFs) is defined as (ΔFBL−ΔFBL+antibiotic)/ΔFBL, where ΔFBL and ΔFBL+antibiotic is the fluorescence rate of change of the β-lactamase only and β-lactamase and antibiotic conditions, respectively. […]
Time course assays were carried out with each of the two liquid samples by monitoring β-LEAF cleavage by measuring fluorescence for 60 minutes, at 1 minute intervals using a Spectramax® M5 Plate Reader (Molecular Devices). […] Fluorescence was measured in a machine specific standard unit.
In this example, β-LEAF assays were performed with the two ATCC S. aureus control bacterial strains, a known β-lactamase producing strain (B-lac(+)) and a known β-lactamase non-producing strain (B-lac(−)). […] Four test solutions were prepared and examined for time-course fluorescence intensity changes: […]

T1 sequence (P00807 25-281): as above

## CC1(C)S[C@@H]2[C@H](NC(=O)Cc3ccccc3)C(=O)N2[C@H]1C(=O)O [Penicillin G]
S. Aureus; 50 μl sample, 2.5e6 CFU/ml S. Aureus, fluorescent probe plus Penicillin G
  change of fluorescence intensity over the ten-minute time period: did not change significantly
S. Aureus; S. Aureus, competition with fluorescent probe
  susceptibility of the antibiotic to cleavage by the bacteria: vulnerable to cleaving

## Cc1nnc(SCC2=C(C(=O)O)N3C(=O)[C@@H](NC(=O)Cn4cnnn4)[C@H]3SC2)s1 [cefazolin]
[1]
  suppression of fluorescence change (ΔFs): ~1
